# Key:
# [1] = Storage stability of amorphous tenofovir alafenamide hemifumarate and premixes, PXRD pattern; type: physicochemical
# Procedure: The amorphous form of tenofovir alafenamide hemifumarate of the present disclosure may be characterized by a PXRD pattern. Thus, the PXRD patterns of the amorphous form of tenofovir alafenamide hemifumarate were obtained on BRUKER D-8 Discover powder diffractometer equipped with goniometer of θ/2θ configuration and Lynx Eye detector. The Cu-anode X-ray tube was operated at 40 kV and 30 mA. The experiments were conducted over the 2θ range of 2.0°-50.0°, 0.030° step size and 0.4 seconds step time.
# Thus, the PXRD patterns of several embodiments of the present disclosure were obtained on BRUKER D-8 Discover powder diffractometer equipped with goniometer of θ/2θ configuration and Lynx Eye detector. The Cu-anode X-ray tube was operated at 40 kV and 30 mA. The experiments were conducted over the 2θ range of 2.0°-50.0°, 0.030° step size and 0.4 seconds step time.
# [2] = Storage stability of amorphous tenofovir alafenamide hemifumarate and premixes, HPLC purity
# Procedure: As used herein, a compound or pharmaceutical composition is considered “stable” where the HPLC purity of the compound or premix changes by less than about 1% when stored at 5±3° C. and/or at 25° C./60% relative humidity (RH). In certain embodiments, the “stable” compound or premix is stored at 5±3° C. In other embodiments, the “stable” compound or premix is stored at 25° C./60% relative humidity (RH).
# Further, the stability of certain embodiments of the premix of amorphous tenofovir alafenamide hemifumarate can be measured by PXRD and HPLC. Thus, HPLC analyses were also performed. HPLC separations were performed on a Waters Alliance 2695 HPLC system with UV detector. Data was collected and analyzed with Empower chromatography software or equivalent. The separation was performed on an X-Bridge Phenyl, 250×4.6 mm, 5 μm column with a mobile phase flow rate of 0.7 mL/min and injection volume of 10 μL. Separations were performed by gradient elution with mobile 1.75 mM tetrabutylammonium bisulfate (pH 2.0) in 5% THF (mobile phase A) and 70:30 acetonitrile:methanol (mobile phase B) as specified in the table below.
# The column oven temp was 20° C. and UV detector was set to 260 nm. The purity of the premix was also measured by HPLC using similar conditions.
smiles,measurement,setting,value
CC(C)OC(=O)[C@H](C)N[P@](=O)(CO[C@H](C)Cn1cnc2c(N)ncnc21)Oc1ccccc1 [tenofovir alafenamide hemifumarate],PXRD,"[1]; at 5 ± 3° C., 3 months",Stable
same,PXRD,"[1]; at 5 ± 3° C., 6 months",Stable
same,PXRD,"[1]; at 5 ± 3° C., Initial",Amorphous
same,PXRD,"[1]; at 25° C./60% RH, 3 months",Stable
same,PXRD,"[1]; at 25° C./60% RH, 6 months",Stable
same,PXRD,"[1]; at 25° C./60% RH, Initial",Amorphous
same,HPLC purity (%),"[2]; at 5 ± 3° C., 3 months",99.45%
same,HPLC purity (%),"[2]; at 5 ± 3° C., 6 months",99.54%
same,HPLC purity (%),"[2]; at 5 ± 3° C., Initial",99.53%
same,HPLC purity (%),"[2]; at 25° C./60% RH, 3 months",99.36%
same,HPLC purity (%),"[2]; at 25° C./60% RH, 6 months",99.48%
same,HPLC purity (%),"[2]; at 25° C./60% RH, Initial",99.53%
same,degradation or change in PXRD pattern on storage,"[2]; stored at 5±3° C. and at 25° C./60% RH, 3 and 6 months, HPLC and PXRD",no significant degradation or change in PXRD pattern
